Patent US9573899B2, “USP7 inhibitor compounds and methods of use” (Genentech, Inc., priority 2015, dated 2017)

molecular target: T1, USP7, full-length, native C-Terminus (Homo sapiens, UniProt Q93009); assay: Biochemical USP7 assay with Ubiquitin-Rho110 substrate (USP7_Ub-Rho110 Fluor); settings: no pre-incubation; 1 hour reaction at room temperature; read-out: USP7 Ub-Rho110 Fluor (IC50)
T1 construct: USP7, full-length, native C-Terminus, 0.2 nM
Description: (§1) Biochemical USP7 assays using Ubiquitin-Rho110 as a substrate: The final assay conditions were as follows: The Reaction Buffer consisted of: 50 mM Tris (pH 7.5), 0.01% (v/v) Triton X-100, 2.5 mM Dithiothreitol, 0.1% (w/v) bovine gamma globulin (Sigma cat #G5009-25G); USP7, full-length, native C-Terminus, 0.2 nM; the substrate, Ubiquitin-Rho110 (Boston Biochem cat #U-555), 1 uM. Reactions were carried out for 1 hour at room temperature, in black 20 μL volume polystyrene ProxiPlate 384 F Plus® (PerkinElmer cat #6008260).
(§2) Test compounds, including a control USP7 inhibitor (Ub-aldehyde, Boston Biochem cat #U-201) were serially diluted in DMSO, in 384 well clear V-bottom polypropylene plates (Greiner cat #781280). Compounds in DMSO were diluted 10-fold into Reaction Buffer, to achieve 3-fold the final desired concentration. The substrate, Ubiquitin-Rho110 (Boston Biochem cat #U-555), was prepared at 3 μM (3-fold the final concentration) and 5 ul was dispensed into the reaction plate. 5 ul of the compounds (diluted in Reaction Buffer at 3-fold the final concentration) were transferred to the reaction plate. 5 ul of 0.6 nM USP7 (diluted in Reaction Buffer at 3-fold the final concentration) was transferred to the reaction plate to initiate the reaction. After 1 hour incubation at room temperature the reaction was quenched by the addition of 5 ul of 400 mM acetic acid. The enzymatic product was measured by quantifying the fluorescence signal of cleaved Rhodamine-110 using excitation at 485 nm and emission at 535 nm. When pre-incubation of USP7 with compounds was required, the order of addition of reagents was modified to pre-mix the compounds with USP7 (with a 1 hour incubation period), prior to the addition of the substrate and the initiation of the reaction period. Percentage inhibition values were calculated relative to a no enzyme control and a uninhibited enzyme control. Curve fitting and IC50 calculations were carried out using Genedata Screener software.

T1 sequence (Q93009 whole entry): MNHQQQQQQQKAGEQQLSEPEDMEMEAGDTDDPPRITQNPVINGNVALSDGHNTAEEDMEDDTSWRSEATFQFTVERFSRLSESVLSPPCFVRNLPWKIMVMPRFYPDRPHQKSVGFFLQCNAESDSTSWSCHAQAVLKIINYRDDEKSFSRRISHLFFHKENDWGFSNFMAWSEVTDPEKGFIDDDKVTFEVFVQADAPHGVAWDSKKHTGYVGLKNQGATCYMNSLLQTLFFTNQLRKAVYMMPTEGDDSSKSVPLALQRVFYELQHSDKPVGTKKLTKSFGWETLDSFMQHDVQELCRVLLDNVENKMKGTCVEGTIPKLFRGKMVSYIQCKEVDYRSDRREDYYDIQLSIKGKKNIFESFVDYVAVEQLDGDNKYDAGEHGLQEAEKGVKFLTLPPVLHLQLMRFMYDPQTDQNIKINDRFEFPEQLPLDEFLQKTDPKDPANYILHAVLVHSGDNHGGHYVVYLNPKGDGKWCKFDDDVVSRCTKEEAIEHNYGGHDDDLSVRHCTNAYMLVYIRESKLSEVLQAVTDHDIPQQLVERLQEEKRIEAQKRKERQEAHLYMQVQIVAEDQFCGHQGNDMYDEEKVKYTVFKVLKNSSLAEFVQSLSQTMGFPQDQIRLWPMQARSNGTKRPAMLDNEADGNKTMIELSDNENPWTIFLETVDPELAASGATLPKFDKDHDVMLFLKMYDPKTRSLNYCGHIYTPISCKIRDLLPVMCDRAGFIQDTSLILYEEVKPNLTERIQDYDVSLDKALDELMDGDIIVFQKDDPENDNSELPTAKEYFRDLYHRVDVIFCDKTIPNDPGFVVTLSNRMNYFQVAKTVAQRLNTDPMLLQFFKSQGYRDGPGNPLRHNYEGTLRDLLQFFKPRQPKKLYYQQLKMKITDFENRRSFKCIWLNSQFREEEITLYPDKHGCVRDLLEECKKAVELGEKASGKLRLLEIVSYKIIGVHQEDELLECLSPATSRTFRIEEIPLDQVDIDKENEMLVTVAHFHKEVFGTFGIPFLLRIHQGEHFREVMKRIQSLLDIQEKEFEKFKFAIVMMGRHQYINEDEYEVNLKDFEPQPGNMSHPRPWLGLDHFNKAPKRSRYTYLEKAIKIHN

Compound	IC50
COc1c(-c2ccc(O)cc2)cnc(N)c1-c1ccc(O)cc1 [Compound 4, 4-[6-amino-5-(4-hydroxyphenyl)-4-methoxy-3-pyridyl]phenol]	29.1 µM
CCc1c(-c2ccc(O)cc2F)cnc(N)c1-c1ccc(O)cc1 [Compound 7, 4-[6-amino-4-ethyl-5-(4-hydroxyphenyl)-3-pyridyl]-3-fluoro-phenol]	4.5 µM
Cc1c(-c2ccc(O)cc2)cnc(N)c1-c1ccc(O)cc1 [Compound 1, 4-[6-amino-5-(4-hydroxyphenyl)-4-methyl-3-pyridyl]phenol]	7.7 µM
CCCc1c(-c2ccc(O)cc2)cnc(N)c1-c1ccc(O)cc1 [Compound 6, 4-[6-amino-5-(4-hydroxyphenyl)-4-propyl-3-pyridyl]phenol]	35.2 µM
Nc1ncc(-c2ccc(O)cc2)c(C2CC2)c1-c1ccc(O)cc1 [Compound 9, 4-[6-amino-4-cyclopropyl-5-(4-hydroxyphenyl)-3-pyridyl]phenol]	56.6 µM

molecular target: T1, USP7, full-length, native C-Terminus; assay: Biochemical USP7 assay with Ubiquitin-Rho110 substrate, compounds pre-incubated with USP7 (USP7_Ub-Rho preInc); settings: compounds pre-mixed with USP7, 1 hour incubation, before substrate; read-out: USP7 Ub-Rho preInc (IC50)
Description: as §1, §2

Compound	IC50
CCc1c(-c2ccc(C#N)cc2)cnc(N)c1-c1ccc(O)cc1 [Compound 51, 4-[6-amino-4-ethyl-5-(4-hydroxyphenyl)-3-pyridyl]benzonitrile]	44.2 µM
CCc1c(-c2ccccc2F)cnc(N)c1-c1ccc(O)cc1 [Compound 50, 4-[2-amino-4-ethyl-5-(2-fluorophenyl)-3-pyridyl]phenol]	14.2 µM
CCc1c(-c2ccc(F)cc2)cnc(N)c1-c1ccc(O)cc1 [Compound 34, 4-[2-amino-4-ethyl-5-(4-fluorophenyl)-3-pyridyl]phenol]	19.9 µM
CCc1c(-c2ccc(O)cc2)cnc(N)c1-c1cccc(COC)c1 [Compound 24, 4-[6-amino-4-ethyl-5-[3-(methoxymethyl)phenyl]-3-pyridyl]phenol]	> 63.3 µM
CCc1c(-c2ccc(O)cc2)cnc(N)c1-c1cccc(CNC(=O)OC(C)(C)C)c1 [Compound 23, tert-butyl N-[[3-[2-amino-4-ethyl-5-(4-hydroxyphenyl)-3-pyridyl]phenyl]methyl]carbamate]	> 6.3 µM
CCc1c(-c2cccc(C(N)=O)c2)cnc(N)c1-c1ccc(O)cc1 [Compound 46, 3-[6-amino-4-ethyl-5-(4-hydroxyphenyl)-3-pyridyl]benzamide]	114 µM
CCc1c(-c2ccc(O)cc2)cnc(N)c1-c1cccc(NS(C)(=O)=O)c1 [Compound 41, N-[3-[2-amino-4-ethyl-5-(4-hydroxyphenyl)-3-pyridyl]phenyl]methanesulfonamide]	118 µM
CCc1c(-c2ccc(C#N)nc2)cnc(N)c1-c1ccc(O)cc1 [Compound 62, 5-[6-amino-4-ethyl-5-(4-hydroxyphenyl)-3-pyridyl]pyridine-2-carbonitrile]	39.2 µM
CCc1c(-c2ccc(O)cc2)cnc(N)c1-c1cccc(C#N)c1 [Compound 19, 3-[2-amino-4-ethyl-5-(4-hydroxyphenyl)-3-pyridyl]benzonitrile]	9.9 µM
CCc1c(-c2cccc3nn(C)cc23)cnc(N)c1-c1ccc(O)cc1 [Compound 85, 4-[2-amino-4-ethyl-5-(2-methylindazol-4-yl)-3-pyridyl]phenol]	14.6 µM
CCc1c(-c2cccc(Cl)c2)cnc(N)c1-c1ccc(O)cc1 [Compound 77, 4-[2-amino-5-(3-chlorophenyl)-4-ethyl-3-pyridyl]phenol]	11 µM
CCc1c(-c2cccc(CC#N)c2)cnc(N)c1-c1ccc(O)cc1 [Compound 66, 2-[3-[6-amino-4-ethyl-5-(4-hydroxyphenyl)-3-pyridyl]phenyl]acetonitrile]	18.3 µM
CCc1c(-c2cnn(CC(C)C)c2)cnc(N)c1-c1ccc(O)cc1 [Compound 71, 4-[2-amino-4-ethyl-5-(1-isobutylpyrazol-4-yl)-3-pyridyl]phenol]	70.6 µM
CCc1c(-c2ccc(C)nc2)cnc(N)c1-c1ccc(O)cc1 [Compound 35, 4-[2-amino-4-ethyl-5-(6-methyl-3-pyridyl)-3-pyridyl]phenol]	31.2 µM
CCc1c(-c2ccc(O)cc2)cnc(N)c1-c1ccc2cn[nH]c2c1 [Compound 93, 4-[6-amino-4-ethyl-5-(1H-indazol-6-yl)-3-pyridyl]phenol]	13.8 µM
CCc1c(-c2ccc(O)cc2)cnc(N)c1-c1ccccc1 [Compound 16, 4-(6-amino-4-ethyl-5-phenyl-3-pyridyl)phenol]	60.7 µM
CCc1c(-c2cccc(C(F)F)c2)cnc(N)c1-c1ccc(O)cc1 [Compound 74, 4-[2-amino-5-[3-(difluoromethyl)phenyl]-4-ethyl-3-pyridyl]phenol]	7.8 µM
CCc1c(-c2ccc(O)cc2)cnc(N)c1-c1ccc(N(C)C(=O)OC(C)(C)C)cc1 [Compound 28, tert-butyl N-[4-[2-amino-4-ethyl-5-(4-hydroxyphenyl)-3-pyridyl]phenyl]-N-methyl-carbamate]	> 20 µM
CCc1c(-c2ccc3[nH]c(C)nc3c2)cnc(N)c1-c1ccc(O)cc1 [Compound 86, 4-[2-amino-4-ethyl-5-(2-methyl-1H-benzimidazol-5-yl)-3-pyridyl]phenol]	13.5 µM
CCc1c(-c2cncnc2)cnc(N)c1-c1ccc(O)cc1 [Compound 32, 4-(2-amino-4-ethyl-5-pyrimidin-5-yl-3-pyridyl)phenol]	69.9 µM
CCc1c(-c2ccc(C(=O)NC3CC3)cc2)cnc(N)c1-c1ccc(O)cc1 [Compound 65, 4-[6-amino-4-ethyl-5-(4-hydroxyphenyl)-3-pyridyl]-N-cyclopropyl-benzamide]	7.7 µM
CCc1c(-c2ccc(=O)[nH]c2)cnc(N)c1-c1ccc(O)cc1 [Compound 58, 5-[6-amino-4-ethyl-5-(4-hydroxyphenyl)-3-pyridyl]-1H-pyridin-2-one]	93.3 µM
CCc1c(-c2ccc(O)cc2)cnc(N)c1-c1cccc(CC#N)c1 [Compound 27, 2-[3-[2-amino-4-ethyl-5-(4-hydroxyphenyl)-3-pyridyl]phenyl]acetonitrile]	48.7 µM
CCc1c(-c2ccc(O)cc2)cnc(N)c1-c1ccc2[nH]ncc2c1 [Compound 87, 4-[6-amino-4-ethyl-5-(1H-indazol-5-yl)-3-pyridyl]phenol]	2.1 µM
CCc1c(-c2ccc(O)cc2)cnc(N)c1-c1ccc(NC(=O)OC(C)(C)C)cc1 [Compound 21, tert-butyl N-[4-[2-amino-4-ethyl-5-(4-hydroxyphenyl)-3-pyridyl]phenyl]carbamate]	> 20 µM
CCc1c(-c2ccccc2C)cnc(N)c1-c1ccc(O)cc1 [Compound 33, 4-[2-amino-4-ethyl-5-(o-tolyl)-3-pyridyl]phenol]	> 63.3 µM
CCc1c(-c2ccc(O)c(C(N)=O)c2)cnc(N)c1-c1ccc(O)cc1 [Compound 95, 5-[6-amino-4-ethyl-5-(4-hydroxyphenyl)-3-pyridyl]-2-hydroxy-benzamide]	106 µM
CCc1c(-c2ccc(OC)cc2)cnc(N)c1-c1ccc(O)cc1 [Compound 53, 4-[2-amino-4-ethyl-5-(4-methoxyphenyl)-3-pyridyl]phenol]	> 20 µM
CCc1c(-c2ccc(O)cc2)cnc(N)c1-c1cncc(C#N)c1 [Compound 29, 5-[2-amino-4-ethyl-5-(4-hydroxyphenyl)-3-pyridyl]pyridine-3-carbonitrile]	18.6 µM
CCc1c(-c2ccc(N)cc2)cnc(N)c1-c1ccc(O)cc1 [Compound 91, 4-[2-amino-5-(4-aminophenyl)-4-ethyl-3-pyridyl]phenol]	47 µM
